Measurements from patent US5705498A, “Piperidine derivatives as 5-HT4 receptor antagonists” (SmithKline Beecham plc., priority 1992, dated 1998).

Target: T1, 5-HT4 receptor (Cavia porcellus, UniProt O70528)
T1 construct: Longitudinal muscle-myenteric plexus preparations, approximately 3 cm long, are obtained from the distal colon region; from tissue; host or cells: guinea-pig distal colon, longitudinal muscle-myenteric plexus preparation
Test: Guinea pig colon longitudinal muscle-myenteric plexus, antagonism of 5-HT-evoked contraction
Details: guinea-pig distal colon; contraction evoked by 5-HT; methiothepin 10^-7 M and granisetron 10^-6 M present; read-out: pIC50 (-log concentration of antagonist which reduces the contraction by 50%) (converted)
Protocol: Male guinea-pigs, weighing 250-400 g are used. Longitudinal muscle-myenteric plexus preparations, approximately 3 cm long, are obtained from the distal colon region. These are suspended under a 0.5 g load in isolated tissue baths containing Krebs solution bubbled with 5% CO2 in O2 and maintained at 37° C. In all experiments, the Krebs solution also contains methiothepin 10^-7 M and granisetron 10^-6 M to block effects at 5-HT1, 5-HT2 and 5-HT3 receptors.
After construction of a simple concentration-response curve with 5-HT, using 30 s contact times and a 15 min dosing cycle, a concentration of 5-HT is selected so as to obtain a contraction of the muscle approximately 40-70% maximum(10^-9 M approx). The tissue is then alternately dosed every 15 min with this concentration of 5-HT and then with an approximately equi-effective concentration of the nicotine receptor stimulant, dimethylphenylpiperazinium (DMPP). After obtaining consistent responses to both 5-HT and DMPP, increasing concentrations of a putative 5-HT4 receptor antagonist are then added to the bathing solution. The effects of this compound are then determined as a percentage reduction of the contractions evoked by 5-HT or by DMPP. […] A compound which reduces the response to 5-HT but not to DMPP is believed to act as a 5-HT4 receptor antagonist.

T1 sequence (O70528 whole entry): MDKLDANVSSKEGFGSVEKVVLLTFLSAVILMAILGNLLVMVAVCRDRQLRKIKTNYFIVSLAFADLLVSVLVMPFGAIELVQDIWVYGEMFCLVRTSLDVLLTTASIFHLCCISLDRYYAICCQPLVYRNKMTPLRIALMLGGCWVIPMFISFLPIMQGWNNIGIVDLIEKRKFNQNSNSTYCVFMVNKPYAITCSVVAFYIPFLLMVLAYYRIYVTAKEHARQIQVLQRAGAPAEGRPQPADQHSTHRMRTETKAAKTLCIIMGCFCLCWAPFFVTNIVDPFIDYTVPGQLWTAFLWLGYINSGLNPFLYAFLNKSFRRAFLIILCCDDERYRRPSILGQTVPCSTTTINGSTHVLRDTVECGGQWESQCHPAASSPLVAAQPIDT

- IC50: < 1 nM
Structure (SMILES): Nc1c(Cl)cc(C(=O)OCC2CCN(Cc3cccnc3)CC2)c2c1OCCO2 [Example E1, 5-(1-(3-Pyridylmethyl)-4-piperidinyl)methyl-8-amino-7-chloro-1,4-benzodioxancarboxylate]
